Where no end group is shown, it is not given here.
Legend:
[1] = molecular target: T1, human orexin type 2 receptor (hOX2R) (Homo sapiens, UniProt O43614); assay: Orexin type 2 receptor agonist activity (FLIPR TETRA intracellular Ca2+ fluorescence); type: cell-based; conditions: for EC50: CHO cells expressing hOX2R, area of Ca2+ fluorescence over 2 min, read-out: hOx2 pEC50 (converted); for Emax at 10 µM: value at 10 μM, dilution buffer = 0%, 10 nM human orexin A = 100%, read-out: hOx2 Emax
T1 construct: expressed in transfected cells
T1 sequence (O43614 1-444): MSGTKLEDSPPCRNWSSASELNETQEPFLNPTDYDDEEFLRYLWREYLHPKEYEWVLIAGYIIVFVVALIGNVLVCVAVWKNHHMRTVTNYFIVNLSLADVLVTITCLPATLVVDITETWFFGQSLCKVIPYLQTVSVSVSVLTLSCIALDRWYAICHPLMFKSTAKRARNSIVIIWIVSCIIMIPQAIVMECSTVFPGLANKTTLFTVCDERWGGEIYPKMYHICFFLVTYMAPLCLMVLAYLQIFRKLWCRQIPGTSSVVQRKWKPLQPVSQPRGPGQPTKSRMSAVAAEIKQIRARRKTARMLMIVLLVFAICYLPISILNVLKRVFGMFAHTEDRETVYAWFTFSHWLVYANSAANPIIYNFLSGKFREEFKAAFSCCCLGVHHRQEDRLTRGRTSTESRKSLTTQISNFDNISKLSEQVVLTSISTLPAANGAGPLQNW
Description: Stable cell line generation. Obtainment of cells stably expressing either human orexin type 2 or human orexin type 1 receptor: to obtain a stable cell line the Orexin receptor cDNA was inserted into pcDNA3.1(+) plasmid vector and clones identified by G418 drug resistance selection. […] A single clone for OX2R-CHO and OX1R-CHO were grown in bulk and frozen to generate a cell bank for routine screening.
Measurement of orexin type 2 receptor agonist activity. Chinese hamster ovary (CHO) cells expressing human orexin type 2 receptor (hOX2R) or human orexin […] were seeded in each well of 384 well black clear bottom plates (BD Flacon) at 10,000 cells per well and cultured for 24 hr in an Ham's F12 (Gibco) medium containing 10% fetal calf serum (Sigma Aldrich) under the conditions of 37° C., 5% CO2. After removal of the medium, 50 μl of assay buffer 1 (0.1% bovine serum albumin (Sigma Aldrich), 20 mM HEPES (Molecular Dimensions), […] (Sigma Aldrich), 1× Calcium 5 dye (Molecular Devices) in Hank's balanced salt solution (Invitrogen)) was added, and the cells were incubated for 60 min under the conditions of 37° C., 5% CO2. A test compound was dissolved in dimethyl sulfoxide (Sigma Aldrich) to 10 mM, and then diluted with assay buffer 2 (20 mM HEPES, Hank's balanced salt solution, 0.1% bovine serum albumin). For the reaction, a test compound solution (10 μl) was added using Fluorescent Imaging Plate Reader TETRA (FLIPR TETRA: manufactured by Molecular Devices), a fluorescence value (excitation wavelength 488 nm, measurement wavelength 570 nm) of each well was measured every one second for 2 min, and the agonist activity was determined using the area of the fluorescence value as an indicator of intracellular Ca^2+ concentration. The agonist activity of the test compound was calculated assuming that the fluorescence value of the well added with only the dilution buffer was 0% and the fluorescence value of the well added with 10 nM human orexin A (Tocris) buffer was 100%. As used herein, Emax indicates the value at 10 μM concentration when orexin A is converted to a full agonist (maximum value of agonist activity: 100%).

mice = conditions: cited from earlier work
[2] = ICV, 3 nmol, orexin-neuron ablated mice

Compound	EC50 [1] [nM]	Emax at 10 µM [1] [%]	other results
CC1(C#Cc2cccc(C[C@H]3[C@@H](NS(C)(=O)=O)CCN3C(=O)[C@H]3CCO3)c2F)CC1 [Compound 1-1, N-((2S,3S)-2-(2-fluoro-3-((1-methylcyclopropyl)ethynyl)benzyl)-1-((R)-oxetane-2-carbonyl)pyrrolidin-3-yl)methanesulfonamide]		≥ 90	
CCS(=O)(=O)NC1CCN(C(=O)C(C)C)C1Cc1cccc(C#CC(C)(C)C)c1 (racemic) [Compound 1-12, N-(2-(3-(3,3-dimethylbut-1-yn-1-yl)benzyl)-1-isobutyrylpyrrolidin-3-yl) ethane-sulfonamide]	> 100	≥ 90	
CC1(C#Cc2cccc(C[C@H]3[C@@H](NS(C)(=O)=O)CCCN3C(=O)[C@H]3CCO3)c2F)CC1 (single isomer, unassigned) [Compound 1-5]		≥ 90	
CCS(=O)(=O)NC1CCN(C(=O)C(C)C)C1Cc1cccc(C#CC2CCCC2)c1 (racemic) [Compound 1-13, N-(2-(3-(cyclopentylethynyl)benzyl)-1-isobutyrylpyrrolidin-3-yl)ethanesulfonamide]	> 100	≥ 90	
CS(=O)(=O)N[C@H]1CCN(C(=O)N2CCC2)[C@H]1Cc1cccc(C#CC2CCC2)c1F [Compound 1-7, N-((2S,3S)-1-(azetidine-1-carbonyl)-2-(3-(cyclobutylethynyl)-2-fluorobenzyl)-pyrrolidin-3-yl)methanesulfonamide]		≥ 90	
CC1(C#Cc2cccc(C[C@H]3[C@@H](NS(C)(=O)=O)CCN3C(=O)N3CCC3)c2F)CC1 [Compound 1-8, N-((2S,3S)-1-(azetidine-1-carbonyl)-2-(2-fluoro-3-((1-methylcyclopropyl)-ethynyl)benzyl)pyrrolidin-3-yl)methanesulfonamide]	1 to 10	≥ 90	
CCNC(=O)N1CC[C@H](NS(C)(=O)=O)[C@@H]1Cc1cccc(C#CC2(C)CC2)c1F [Compound 1-6, (2S,3S)—N-ethyl-2-(2-fluoro-3-((1-methylcyclopropyl)ethynyl)benzyl)-3-(methylsulfonamido)pyrrolidine-1-carboxamide]		≥ 90	
CCS(=O)(=O)NC1CCN(C(=O)C(C)C)C1Cc1cccc(C#CC2(C)COC2)c1 (racemic) [Compound 1-9, N-(1-isobutyryl-2-(3-((3-methyloxetan-3-yl)ethynyl)benzyl)pyrrolidin-3-yl)ethane-sulfonamide]	> 100	≥ 90	
COC(=O)N1CCC[C@H](NS(C)(=O)=O)[C@@H]1CO[C@H]1CC[C@@H](c2ccccc2)CC1 [TAK-925]			wakefulness (mice; subcutaneous, WT mice): modestly increases wakefulness
CC1(C#Cc2cccc(C[C@@H]3[C@H](NS(C)(=O)=O)CCCN3C(=O)[C@H]3CCO3)c2F)CC1 (single isomer, unassigned) [Compound 1-4]	> 100	60 to 70	
orexin A: orexin peptide cleaved from prepro-orexin; 10 nM human orexin A (Tocris) defines 100% agonist activity (QPLPDCCRQKTCSCRLYELLHGAGNHAAGILTL; ends and bridges not checked; cysteine pairing not given here; UniProt O43612 34-66, looked up)			cataplexy-like behavior (mice; [2]): decreases cataplexy-like behavior; time spent awake (mice; [2]): increase time spent awake
CS(=O)(=O)N[C@H]1CCN(C(=O)[C@H]2CCO2)[C@H]1Cc1cccc(C#CC2(C(F)(F)F)CC2)c1F [Compound 1-2, N-((2S,3S)-2-(2-fluoro-3-((1-(trifluoromethyl)cyclopropyl)ethynyl)benzyl)-1-((R)-oxetane-2-carbonyl)pyrrolidin-3-yl)methanesulfonamide]		≥ 90	
CC1(C#Cc2cccc(C[C@H]3[C@@H](NS(C)(=O)=O)CCN3C(=O)[C@H]3CCO3)c2)CC1 [Compound 1-3, N-((2S,3S)-2-(3-((1-methylcyclopropyl)ethynyl)benzyl)-1-((R)-oxetane-2-carbonyl)pyrrolidin-3-yl)methanesulfonamide]		≥ 90	
CCS(=O)(=O)NC1CCN(C(=O)C(C)C)C1Cc1cccc(C#CC2COC2)c1 (racemic) [Compound 1-10, N-(1-isobutyryl-2-(3-(oxetan-3-ylethynyl)benzyl)pyrrolidin-3-yl)ethanesulfonamide]	> 100	70 to 80	
CCS(=O)(=O)NC1CCN(C(=O)C(C)C)C1Cc1cccc(C#CCOC)c1F (racemic) [Compound 1-11, N-(2-(2-fluoro-3-(3-methoxyprop-1-yn-1-yl)benzyl)-1-isobutyrylpyrrolidin-3-yl)ethanesulfonamide]	> 100	70 to 80	

Further lines, with some results ahead:

EC50 [1] [nM]	Emax at 10 µM [1] [%]	Compound	other results
1 to 10	≥ 90	CCS(=O)(=O)N[C@H]1CCN(C(=O)N2CCC2)[C@H]1Cc1cccc(C#CC2CC2)c1F (single isomer, unassigned) [Compound 1-16]	
> 100	≥ 90	CCS(=O)(=O)NC1CCN(C(=O)C(C)C)C1Cc1cccc(C#CC2CC2)c1 (racemic) [Compound 1-14, N-(2-(3-(cyclopropylethynyl)benzyl)-1-isobutyrylpyrrolidin-3-yl) ethanesulfonamide]	
	≥ 90	CCS(=O)(=O)NC1CCN(C(=O)C(C)C)C1Cc1cccc(C#CC2CC2)c1F (racemic) [Compound 1-20, N-(2-(3-(cyclopropylethynyl)-2-fluorobenzyl)-1-isobutyrylpyrrolidin-3-yl)ethanesulfonamide]	
	≥ 90	CCS(=O)(=O)NC1CCN(C(=O)C2CCC2)C1Cc1cccc(C#CC2CC2)c1F (racemic) [Compound 1-19, N-(1-(cyclobutanecarbonyl)-2-(3-(cyclopropylethynyl)-2-fluorobenzyl)pyrrolidin-3-yl)ethanesulfonamide]	
> 100	80 to 90	CCS(=O)(=O)NC1CCN(C(=O)N2CCC2)C1Cc1cccc(C#CC2CC2)n1 (racemic) [Compound 1-17, N-(1-(azetidine-1-carbonyl)-2-((6-(cyclopropylethynyl)pyridin-2-yl)methyl)pyrrolidin-3-yl)ethanesulfonamide]	
> 100	70 to 80	CCS(=O)(=O)N[C@@H]1CCN(C(=O)N2CCC2)[C@@H]1Cc1cccc(C#CC2CC2)c1F (single isomer, unassigned) [Compound 1-15]	
> 100	80 to 90	CCS(=O)(=O)NC1CCN(C(=O)C(C)(C)O)C1Cc1cccc(C#CC2CC2)c1 (racemic) [Compound 1-21, N-(2-(3-(cyclopropylethynyl)benzyl)-1-(2-hydroxy-2-methylpropanoyl)pyrrolidin-3-yl)ethanesulfonamide]	
> 100	≥ 90	CCS(=O)(=O)NC1CCN(C(=O)C(C)(C)O)C1Cc1cccc(C#Cc2ccccc2)c1 (racemic) [Compound 1-22, N-(1-(2-hydroxy-2-methylpropanoyl)-2-(3-(phenylethynyl)benzyl)-pyrrolidin-3-yl)ethanesulfonamide]	
	≥ 90	CCS(=O)(=O)NC1CCN(C(=O)N2CCC2)C1Cc1cccc(C#CC2CC2)c1F (racemic) [Compound 1-18, N-(1-(azetidine-1-carbonyl)-2-(3-(cyclopropylethynyl)-2-fluorobenzyl)pyrrolidin-3-yl)ethanesulfonamide]	
